Where “and” joins values, the source holds several entries; their conditions need not be identical. Equal values may be shown once. Toxic doses and inconclusive results are not listed. How the source made its calls: active means survival T/C of 150% or more; inactive means T/C below 125% in these data.
System: BDF1 mice, B16 melanoma ip, median survival T/C
Test: NCI In Vivo Anticancer Drug Screen. Data for tumor model B16 Melanoma (intraperitoneal) in B6D2F1 (BDF1) mice
Conditions: endpoint: median survival time, higher = longer survival
Summary of the method: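 In this screen, activity was judged from survival or tumor size in treated versus vehicle-treated tumor-bearing mice, reported as T/C.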

[1] = dose: 50.0 mg/kg/injection, schedule: Q01DX009 (ip), vehicle: saline with Tween-80
[2] = dose: 100.0 mg/kg/injection, schedule: Q01DX009 (ip), vehicle: saline with Tween-80
[3] = dose: 25.0 mg/kg/injection, schedule: Q01DX009 (ip), vehicle: Klucel (hydroxypropylcellulose) (HPC)
[4] = dose: 50.0 mg/kg/injection, schedule: Q01DX009 (ip), vehicle: Klucel (hydroxypropylcellulose) (HPC)
[5] = dose: 100.0 mg/kg/injection, schedule: Q01DX009 (ip), vehicle: Klucel (hydroxypropylcellulose) (HPC)
[6] = dose: 200.0 mg/kg/injection, schedule: Q01DX009 (ip), vehicle: Klucel (hydroxypropylcellulose) (HPC)
[7] = dose: 100.0 mg/kg/injection, schedule: Q04DX003 (ip), vehicle: Klucel (hydroxypropylcellulose) (HPC)
[8] = dose: 200.0 mg/kg/injection, schedule: Q04DX003 (ip), vehicle: Klucel (hydroxypropylcellulose) (HPC)
[9] = dose: 400.0 mg/kg/injection, schedule: Q01DX009 (ip), vehicle: Klucel (hydroxypropylcellulose) (HPC)
[10] = dose: 400.0 mg/kg/injection, schedule: Q04DX003 (ip), vehicle: Klucel (hydroxypropylcellulose) (HPC)
[11] = dose: 12.5 mg/kg/injection, schedule: Q01DX009 (ip), vehicle: saline
[12] = dose: 25.0 mg/kg/injection, schedule: Q01DX009 (ip), vehicle: saline
[13] = dose: 50.0 mg/kg/injection, schedule: Q01DX009 (ip), vehicle: saline
[14] = dose: 3.12 mg/kg/injection, schedule: Q01DX009 (ip), vehicle: saline
[15] = dose: 6.25 mg/kg/injection, schedule: Q01DX009 (ip), vehicle: saline
[16] = dose: 200.0 mg/kg/injection, schedule: Q01DX009 (ip), vehicle: saline with Tween-80
[17] = dose: 25.0 mg/kg/injection, schedule: Q01DX009 (ip), vehicle: saline with Tween-80

Measured: T/C

O=C(Nc1ccccc1Cl)OCC(Cl)(Cl)Cl
inactive: dose: 75.0 mg/kg/injection, schedule: Q04DX003 (ip), vehicle: Klucel (hydroxypropylcellulose) (HPC) 96 % of control | dose: 150.0 mg/kg/injection, schedule: Q04DX003 (ip), vehicle: Klucel (hydroxypropylcellulose) (HPC) 91 % of control | dose: 300.0 mg/kg/injection, schedule: Q04DX003 (ip), vehicle: Klucel (hydroxypropylcellulose) (HPC) 102 % of control

CCCCCCCCN(C)N=Nc1ccc(Cl)cc1C(=O)O
inactive: [1] 103 % of control | [2] 107 % of control

O=C(CC(=Nc1ccccc1)c1ccccc1)c1ccccc1.O=C(CC(=Nc1ccccc1)c1ccccc1)c1ccccc1.[Cu]
inactive: dose: 6.25 mg/kg/injection, schedule: Q04DX003 (ip), vehicle: saline with Tween-80 93 % of control | dose: 12.5 mg/kg/injection, schedule: Q04DX003 (ip), vehicle: saline with Tween-80 86 % of control | dose: 25.0 mg/kg/injection, schedule: Q04DX003 (ip), vehicle: saline with Tween-80 91 % of control

CNC(=O)Nc1ccccc1C(=O)NN
inactive: [3] 106 % of control | [4] 100 % of control | [5] 100 % of control | [6] 97 % of control

COc1cc2c3c(c1)-c1nc4ccccc4cc1CN3CCC2
inactive: dose: 25.0 mg/kg/injection, schedule: Q04DX003 (ip), vehicle: alcohol 111 % of control | dose: 50.0 mg/kg/injection, schedule: Q04DX003 (ip), vehicle: alcohol 104 % of control | dose: 100.0 mg/kg/injection, schedule: Q04DX003 (ip), vehicle: alcohol 106 % of control | dose: 200.0 mg/kg/injection, schedule: Q04DX003 (ip), vehicle: alcohol 98 % of control

O=C(O)c1ccc(SSc2ccc(C(=O)O)cn2)nc1
inactive: [5] 88 % of control | [7] 93 % of control | [6] 100 % of control | [8] 97 % of control | [9] 88 % of control | [10] 90 % of control

Nc1[nH]c(=O)nc2nc[nH]c12
inactive: [11] 108 % of control | [12] 94 % of control | [13] 89 % of control

CNCC(C)CN1CCCCCc2ccccc21 (stereo unspecified)
inactive: [14] 102 % of control | [15] 100 % of control | [11] 95 % of control | [12] 100 % of control | [13] 113 % of control

CN(C)CCCC1c2ccccc2Oc2ccc(C(F)(F)F)cc21 (stereo unspecified)
inactive: [14] 86 % of control | [15] 88 % of control | [11] 100 % of control | [12] 97 % of control

Cc1c(Cl)cccc1N=Cc1ccccc1O
inactive: [4] 106 % of control | [5] 108 % of control | [6] 97 % of control

c1ccc(COc2ccc(Nc3ccccc3)cc2)cc1
inactive: [5] 106 % of control | [6] 109 % of control | [9] 112 % of control

CC(C)CNN(CC(C)C)C(N)=O
inactive: [2] 111 % of control | [16] 86 % of control

O=C(N[C@H](CO)[C@H](O)c1ccc([N+](=O)[O-])cc1)C(Cl)Cl
inactive: [1] 100 % of control | [2] 99 % of control | [16] 88 % of control | dose: 400.0 mg/kg/injection, schedule: Q01DX009 (ip), vehicle: saline with Tween-80 88 % of control | dose: 800.0 mg/kg/injection, schedule: Q01DX009 (ip), vehicle: saline with Tween-80 87 % of control

C[n+]1c(/C=C\C=C\N2CCCCC2)sc2ccccc21
inactive: dose: 0.06 mg/kg/injection, schedule: Q01DX009 (ip), vehicle: Klucel (hydroxypropylcellulose) (HPC) 101 % of control | dose: 0.12 mg/kg/injection, schedule: Q01DX009 (ip), vehicle: Klucel (hydroxypropylcellulose) (HPC) 105 % of control | dose: 0.25 mg/kg/injection, schedule: Q01DX009 (ip), vehicle: Klucel (hydroxypropylcellulose) (HPC) 101 % of control | dose: 0.5 mg/kg/injection, schedule: Q01DX009 (ip), vehicle: Klucel (hydroxypropylcellulose) (HPC) 95 % of control | dose: 0.63 mg/kg/injection, schedule: Q01DX009 (ip), vehicle: Klucel (hydroxypropylcellulose) (HPC) 103 % of control | dose: 1.0 mg/kg/injection, schedule: Q01DX009 (ip), vehicle: Klucel (hydroxypropylcellulose) (HPC) 101 % of control | dose: 1.25 mg/kg/injection, schedule: Q01DX009 (ip), vehicle: Klucel (hydroxypropylcellulose) (HPC) 101 % of control | dose: 2.0 mg/kg/injection, schedule: Q01DX009 (ip), vehicle: Klucel (hydroxypropylcellulose) (HPC) 105 % of control | dose: 2.5 mg/kg/injection, schedule: Q01DX009 (ip), vehicle: Klucel (hydroxypropylcellulose) (HPC) 109 % of control

COc1ccccc1N1CCCSC1=Nc1ccccc1
inactive: dose: 12.5 mg/kg/injection, schedule: Q01DX009 (ip), vehicle: Klucel (hydroxypropylcellulose) (HPC) 98 % of control | [3] 95 % of control | [4] 95 % of control | [5] 100 % of control | [6] 100 % of control

O=C(Nc1ccc(C2=NCCCN2)cc1)c1ccc(C(=O)Nc2ccc(C3=NCCCN3)cc2)nc1
inactive: dose: 5.0 mg/kg/injection, schedule: Q01DX009 (ip), vehicle: saline with Tween-80 87 % of control | dose: 10.0 mg/kg/injection, schedule: Q01DX009 (ip), vehicle: saline with Tween-80 95 % of control

COc1ccc(-n2c(=S)[nH]c3ccccc3c2=O)cc1
inactive: [5] 97 % of control | [6] 88 % of control

Clc1ccc2c(c1)C(=P(c1ccccc1)(c1ccccc1)c1ccccc1)c1cc(Cl)cc(Cl)c1-2
inactive: [2] 91 % of control | [16] 89 % of control

Cc1ccc2nc3c4ccccc4c4ccccc4c3nc2c1
inactive: [7] 102 % of control | [8] 97 % of control | [10] 91 % of control

CCOC(=O)C1=C(C)O/C(=C/c2cccc(Cl)c2)C1=O
inactive: dose: 6.25 mg/kg/injection, schedule: Q01DX009 (ip), vehicle: saline with Tween-80 110 % of control | dose: 12.5 mg/kg/injection, schedule: Q01DX009 (ip), vehicle: saline with Tween-80 113 % of control | [17] 113 % of control | [1] 86 % of control and 107 % of control | [2] 97 % of control

COc1ccc(C(C)=O)cc1[N+](=O)[O-]
inactive: [1] 97 % of control | [2] 102 % of control | [16] 105 % of control

O=C(O)c1cc2ccccc2o1
inactive: dose: 16.5 mg/kg/injection, schedule: Q01DX009 (ip), vehicle: saline with Tween-80 100 % of control | [17] 100 % of control | dose: 37.5 mg/kg/injection, schedule: Q01DX009 (ip), vehicle: saline with Tween-80 92 % of control | [1] 111 % of control | [2] 102 % of control

Cc1ccc(C)c(NC(=O)Nc2cccc3ccccc23)c1
inactive: dose: 9.0 mg/kg/injection, schedule: Q01DX009 (ip), vehicle: gum acacia 108 % of control | dose: 18.0 mg/kg/injection, schedule: Q01DX009 (ip), vehicle: gum acacia 98 % of control | dose: 37.0 mg/kg/injection, schedule: Q01DX009 (ip), vehicle: gum acacia 91 % of control

O=C1NC(=O)/C(=C/c2ccccc2)N1
inactive: [5] 100 % of control | [6] 107 % of control

COc1cc2ccc3cnccc3c2cc1OC
inactive: dose: 25.0 mg/kg/injection, schedule: Q01DX009 (ip), vehicle: water 99 % of control | dose: 50.0 mg/kg/injection, schedule: Q01DX009 (ip), vehicle: water 91 % of control | dose: 100.0 mg/kg/injection, schedule: Q01DX009 (ip), vehicle: water 98 % of control | dose: 200.0 mg/kg/injection, schedule: Q01DX009 (ip), vehicle: water 88 % of control

CC[C@@H](O)C[C@H]1CCC[C@@]2(C[C@@H]3OC(=O)/C=C/[C@@](C)(O)[C@@H](O)[C@H](C)[C@@H](O)[C@H](OC4CCC(N(C)C)C(C)O4)[C@@H](O)[C@](C)(O)CCCCC/C=C/[C@@H]4CC(C)(C)O[C@@]4(O)C[C@H](O2)[C@H]3C)O1 (stereo partly specified)
inactive: dose: 4.0 micrograms/kg/injection, schedule: Q01DX009 (ip), vehicle: saline 101 % of control | dose: 8.0 micrograms/kg/injection, schedule: Q01DX009 (ip), vehicle: saline 97 % of control | dose: 16.0 micrograms/kg/injection, schedule: Q01DX009 (ip), vehicle: saline 109 % of control | dose: 32.0 micrograms/kg/injection, schedule: Q01DX009 (ip), vehicle: saline 93 % of control

— PubChem BioAssay AID192 (DTP/NCI, 2004)
